In patent publication US12528800B2, “Pesticidal compounds” (BASF SE, priority 2018, dated 2026):

Columns and labels:
Type in all cases: in vivo
[1] = test system: yellow fever mosquito (Aedes aegypti); assay: whole plant or invertebrate; settings: 48 h, larval mortality visually assessed after 2 days, read-out: mortality in comparison with untreated controls
Description: For evaluating control of yellow fever mosquito (Aedes aegypti) the test unit consisted of 96-well-microtiter plates containing 200 μl of tap water per well and 5-15 freshly hatched A. aegypti larvae.
The active compounds or mixtures were formulated using a solution containing 75% (v/v) water and 25% (v/v) DMSO. Different concentrations of formulated compounds or mixtures were sprayed onto the insect diet at 2.5 μl using a custom built micro atomizer, at two replications.
For experimental mixtures in these tests identical volumes of both mixing partners at the desired concentrations respectively, were mixed together.
After application, microtiter plates were incubated at 28+1° C., 80+5% RH for 2 days. Larval mortality was then visually assessed.

[2] = test system: Southern armyworm (Spodoptera eridania), 2nd instar larvae; assay: Action on southern armyworm (Spodoptera eridania), 2nd instar larvae, sprayed lima bean plants; settings: 96 h, 2nd instar larvae on lima bean plants, 4 days after treatment, read-out: mortality in comparison with untreated controls
Description: The active compounds were formulated by a Tecan liquid handler in 100% cyclohexanone as a 10,000 ppm solution supplied in tubes. The 10,000 ppm solution was serially diluted in 100% cyclohexanone to make interim solutions. These served as stock solutions for which final dilutions were made by the Tecan in 50% acetone:50% water (v/v) into 10 or 20 ml glass vials. A nonionic surfactant (Kinetic®) was included in the solution at a volume of 0.01% (v/v). The vials were then inserted into an automated electrostatic sprayer equipped with an atomizing nozzle for application to plants/insects.
Lima bean plants (variety Sieve) were grown 2 plants to a pot and selected for treatment at the 1st true leaf stage. Test solutions were sprayed onto the foliage by an automated electrostatic plant sprayer equipped with an atomizing spray nozzle. The plants were dried in the sprayer fume hood and then removed from the sprayer. Each pot was placed into perforated plastic bags with a zip closure. About 10 to 11 armyworm larvae were placed into the bag and the bags zipped closed. Test plants were maintained in a growth room at about 25° C. and about 20-40% relative humidity for 4 days, avoiding direct exposure to fluorescent light (24 hour photoperiod) to prevent trapping of heat inside the bags. Mortality and reduced feeding were assessed 4 days after treatment, compared to untreated control plants.

[3] = test system: Diamond back moth (Plutella xylostella); assay: Action on diamond back moth (Plutella xylostella), cabbage leaf dip; settings: foliar, 3rd instar larvae on dipped cabbage leaves, 72 hours after treatment, read-out: mortality in comparison with untreated controls
Description: The active compound is dissolved at the desired concentration in a mixture of 1:1 (v/v) distilled water: acetone. Surfactant (Kinetic® HV) is added at a rate of 0.01% (v/v). The test solution is prepared at the day of use.
Leaves of cabbage were dipped in test solution and air-dried. Treated leaves were placed in petri dishes lined with moist filter paper and inoculated with ten 3rd instar larvae. Mortality was recorded 72 hours after treatment. Feeding damages were also recorded using a scale of 0-100%.

[4] = test system: boll weevil (Anthonomus grandis); assay: Action on boll weevil (Anthonomus grandis), microtiter plate diet test; settings: 120 h, egg and larval mortality after 5 days, read-out: mortality in comparison with untreated controls
Description: For evaluating control of boll weevil (Anthonomus grandis) the test unit consisted of 96-well-microtiter plates containing an insect diet and 5-10 A. grandis eggs.
The compounds were formulated using a solution containing 75% (v/v) water and 25% (v/v) DMSO. Different concentrations of formulated compounds were sprayed onto the insect diet at 5 μl, using a custom built micro atomizer, at two replications.
After application, microtiter plates were incubated at about 25+1° C. and about 75+5% relative humidity for 5 days. Egg and larval mortality was then visually assessed.

[5] = test system: Orchid thrips (Dichromothrips corbetti); assay: Action on orchid thrips (Dichromothrips corbetti), floral-immersion technique; settings: adult thrips, 72 hours after treatment, read-out: mortality in comparison with untreated controls
Description: Dichromothrips corbetti adults used for bioassay were obtained from a colony maintained continuously under laboratory conditions. For testing purposes, the test compound is diluted in a 1:1 mixture of acetone:water (vol:vol), plus Kinetic® HV at a rate of 0.01% v/v.
Thrips potency of each compound was evaluated by using a floral-immersion technique. All petals of individual, intact orchid flowers were dipped into treatment solution and allowed to dry in Petri dishes. Treated petals were placed into individual re-sealable plastic along with about 20 adult thrips. All test arenas were held under continuous light and a temperature of about 28° C. for duration of the assay. After 3 days, the numbers of live thrips were counted on each petal. The percent mortality was recorded 72 hours after treatment.

[6] = test system: tobacco budworm (Heliothis virescens); assay: Action on tobacco budworm (Heliothis virescens), microtiter plate diet test; settings: 120 h, egg and larval mortality after 5 days, read-out: mortality in comparison with untreated controls
Description: For evaluating control of tobacco budworm (Heliothis virescens) the test unit consisted of 96-well-microtiter plates containing an insect diet and 15-25 H. virescens eggs.
The compounds were formulated using a solution containing 75% v/v water and 25% v/v DMSO. Different concentrations of formulated compounds were sprayed onto the insect diet at 10 μl, using a custom-built micro atomizer, at two replications.
After application, microtiter plates were incubated at about 28+1° C. and about 80+5% relative humidity for 5 days. Egg and larval mortality were then visually assessed.

CC(C)c1ccccc1NC(=S)N/N=C/c1ccc(-c2cc(NCc3ccc(OC(F)(F)F)cc3)n(C)n2)cc1 [Compound C-3, 1-(2-isopropylphenyl)-3-[(E)-[4-[1-methyl-5-[[4-(trifluoromethoxy)phenyl]methylamino]pyrazol-3-yl]phenyl]methyleneamino]thiourea] showed a mortality at 800 ppm [1] of no less than 50%, a mortality at 300 ppm [2] of no less than 75% and a mortality at 500 ppm [3] of no less than 75%. The mortality at 800 ppm [4] was no less than 75%, the mortality at 500 ppm [5] was no less than 75% and the mortality at 800 ppm [6] was no less than 75%.

CC(C)c1ccccc1NC(=S)N/N=C/c1ccc(-c2cc(NC(=N)c3ccc(OC(F)(F)F)cc3)n(C)n2)cc1 [Compound C-5, 1-(2-isopropylphenyl)-3-[(E)-[4-[1-methyl-5-[[4-(trifluoromethoxy)benzenecarboximidoyl]amino]pyrazol-3-yl]phenyl]methyleneamino]thiourea] showed a mortality at 800 ppm [1] of no less than 50%, a mortality at 300 ppm [2] of no less than 75% and a mortality at 500 ppm [3] of no less than 75%. It also gave a mortality at 800 ppm [4] of no less than 75%, a mortality at 500 ppm [5] of no less than 75% and a mortality at 800 ppm [6] of no less than 75%.

CC(C)c1ccccc1N1C(=O)CS/C1=N\N=C\c1ccc(-c2cc(NC(=N)c3ccc(OC(F)(F)F)cc3)n(C)n2)cc1 [Compound C-6, N-[5-[4-[(E)-[(Z)-[3-(2-isopropylphenyl)-4-oxo-thiazolidin-2-ylidene]hydrazono]methyl]phenyl]-2-methyl-pyrazol-3-yl]-4-(trifluoromethoxy) benzamidine] showed a mortality at 800 ppm [1] of no less than 50%, a mortality at 300 ppm [2] of no less than 75% and a mortality at 500 ppm [3] of no less than 75%. The mortality at 800 ppm [4] was no less than 75% and the mortality at 800 ppm [6] was no less than 75%.

For CC(C)c1ccccc1/N=C1\SCC(=O)N1/N=C/c1ccc(-c2cc(OCc3ccc(OC(F)(F)F)cc3)n(C)n2)cc1 [Compound C-12, (2Z)-2-(2-isopropylphenyl)imino-3-[(E)-[4-[1-methyl-5-[[4-(trifluoromethoxy)phenyl]methoxy]pyrazol-3-yl]phenyl]methyleneamino]thiazolidin-4-one], the mortality at 800 ppm [1] was no less than 50%, the mortality at 300 ppm [2] was no less than 75% and the mortality at 500 ppm [3] was no less than 75%. It also gave a mortality at 800 ppm [4] of no less than 75% and a mortality at 800 ppm [6] of no less than 75%.

Cc1c(-c2ccc(/C=N/NC(=S)Nc3ccccc3C(C)C)cc2)nn(C)c1NC(=O)c1ccc(C(F)(F)F)cc1 [Compound C-15, N-[5-[4-[(E)-[(2-isopropylphenyl)carbamothioylhydrazono]methyl]phenyl]-2,4-dimethyl-pyrazol-3-yl]-4-(trifluoromethyl)benzamide] was tested, and the mortality at 300 ppm [2] was no less than 75%, the mortality at 500 ppm [3] was no less than 75% and the mortality at 800 ppm [4] was no less than 75%. For the same compound, the mortality at 500 ppm [5] was no less than 75% and the mortality at 800 ppm [6] was no less than 75%.

CCn1nc(-c2ccc(/C=N/NC(=S)Nc3ccccc3C(C)C)cc2)cc1NC(=O)c1ccc(OC(F)(F)F)cc1 [Compound C-29, N-[2-ethyl-5-[4-[(E)-[(2-isopropylphenyl)carbamothioylhydrazono]methyl]phenyl]pyrazol-3-yl]-4-(trifluoromethoxy)benzamide] was tested, and the mortality at 800 ppm [1] was no less than 50%, the mortality at 300 ppm [2] was no less than 75% and the mortality at 500 ppm [3] was no less than 75%. For the same compound, the mortality at 800 ppm [4] was no less than 75%, the mortality at 500 ppm [5] was no less than 75% and the mortality at 800 ppm [6] was no less than 75%.

Compound CCn1nc(-c2ccc(/C=N/O[C@@H]3O[C@@H](C)[C@H](OC)[C@@H](OC)[C@H]3OC)cc2)cc1NC(=O)c1ccc(OC(F)(F)F)cc1 [Compound C-32, N-[2-ethyl-5-[4-[(E)-[(2S,3R,4R,5S,6S)-3,4,5-trimethoxy-6-methyl-tetrahydropyran-2-yl]oxyiminomethyl]phenyl]pyrazol-3-yl]-4-(trifluoromethoxy)benzamide] has a mortality at 800 ppm [1] of no less than 50%, a mortality at 300 ppm [2] of no less than 75% and a mortality at 500 ppm [3] of no less than 75%. It also gave a mortality at 800 ppm [4] of no less than 75% and a mortality at 800 ppm [6] of no less than 75%.

CCn1nc(-c2ccc(NC(=O)O[C@@H]3O[C@@H](C)[C@H](OC)[C@@H](OC)[C@H]3OC)cc2)cc1NC(=O)c1ccc(OC(F)(F)F)cc1 [Compound C-33, [(2S,3R,4R,5S,6S)-3,4,5-trimethoxy-6-methyl-tetrahydropyran-2-yl] N-[4-[1-ethyl-5-[[4-(trifluoromethoxy)benzoyl]amino]pyrazol-3-yl]phenyl]carbamate] showed a mortality at 800 ppm [1] of no less than 50%, a mortality at 500 ppm [3] of no less than 75% and a mortality at 800 ppm [4] of no less than 75%. It also gave a mortality at 800 ppm [6] of no less than 75%.

Work on CCn1nc(-c2ccc(NC(=O)O[C@@H]3O[C@@H](C)[C@H](OC)[C@@H](OC)[C@H]3OC)cc2)cc1NCc1ccc(OC(F)(F)F)cc1 [Compound C-40, [(2S,3R,4R,5S,6S)-3,4,5-trimethoxy-6-methyl-tetrahydropyran-2-yl] N-[4-[1-ethyl-5-[[4-(trifluoromethoxy)phenyl]methylamino]pyrazol-3-yl]phenyl]carbamate] yielded a mortality at 800 ppm [1] of no less than 50%, a mortality at 500 ppm [3] of no less than 75% and a mortality at 800 ppm [4] of no less than 75%. It also gave a mortality at 800 ppm [6] of no less than 75%.

For CC(C)c1ccccc1N1C(=O)CS/C1=N\N=C\c1ccc(-c2cc(C(=O)Nc3ccc(OC(F)(F)F)cc3)n(C)n2)cc1 [Compound C-47, 5-[4-[(E)-[(Z)-[3-(2-isopropylphenyl)-4-oxo-thiazolidin-2-ylidene]hydrazono]methyl]phenyl]-2-methyl-N-[4-(trifluoromethoxy)phenyl]pyrazole-3-carboxamide], the mortality at 800 ppm [1] was no less than 50%, the mortality at 300 ppm [2] was no less than 75% and the mortality at 500 ppm [3] was no less than 75%. The mortality at 800 ppm [6] was no less than 75%.

CC(C)c1ccccc1NC(=S)N/N=C/c1ccc(-c2cc(NC(=O)c3ccc(OC(F)(F)F)cc3)[nH]n2)cc1 [Compound C-57, N-[3-[4-[(E)-[(2-isopropylphenyl)carbamothioylhydrazono]methyl]phenyl]-1H-pyrazol-5-yl]-4-(trifluoromethoxy)benzamide] was tested, and the mortality at 800 ppm [1] was no less than 50%, the mortality at 500 ppm [3] was no less than 75% and the mortality at 800 ppm [4] was no less than 75%. The mortality at 500 ppm [5] was no less than 75% and the mortality at 800 ppm [6] was no less than 75%.

Compound CC(C)c1ccccc1N1C(=O)CS/C1=N\N=C\c1ccc(-c2cc(NC(=O)c3ccc(OC(F)(F)F)cc3)[nH]n2)cc1 [Compound C-58, N-[3-[4-[(E)-[(Z)-[3-(2-isopropylphenyl)-4-oxo-thiazolidin-2-ylidene]hydrazono]methyl]phenyl]-1H-pyrazol-5-yl]-4-(trifluoromethoxy)benzamide] has a mortality at 800 ppm [1] of no less than 50%, a mortality at 500 ppm [3] of no less than 75% and a mortality at 800 ppm [4] of no less than 75%. It also gave a mortality at 500 ppm [5] of no less than 75% and a mortality at 800 ppm [6] of no less than 75%.

CC(C)c1ccccc1NC(=S)N/N=C/c1ccc(-c2nc(NC(=O)c3ccc(OC(F)(F)F)cc3)n(C)n2)cc1 [Compound C-63, N-[5-[4-[(E)-[(2-isopropylphenyl)carbamothioylhydrazono]methyl]phenyl]-2-methyl-1,2,4-triazol-3-yl]-4-(trifluoromethoxy)benzamide] gave a mortality at 500 ppm [3] of no less than 75%, a mortality at 800 ppm [4] of no less than 75% and a mortality at 500 ppm [5] of no less than 75%. It also gave a mortality at 800 ppm [6] of no less than 75%.
